In assay [1] the target is EGFR del19/T790M/C797S (Homo sapiens, UniProt P00533, C797S/DEL746-750/T790M). As to the kind of experiment: Biochemical EGFR kinase assay (Lance Ultra TR-FRET), triple mutant del19/T790M/C797S. Summed up: (§1)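 Step 1: compound in kinase buffer, 0.003–10 μM. Step 2: kinase reaction 1 h at room temperature. Step 4: TR-FRET read at 615/665 nm; IC50 calculated.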
In general terms: Time-resolved FRET reads energy transfer from a long-lived donor to a nearby acceptor.

For assay [2], the target named is EGFR L858R/T790M/C797S (Homo sapiens, UniProt P00533, C797S/L858R/T790M). Briefly: Biochemical EGFR kinase assay (Lance Ultra TR-FRET), triple mutant L858R/T790M/C797S. Summed up: as §1
For assay [3], the target named is EGFR del19/C797S (Homo sapiens, UniProt P00533, C797S/DEL746-750). As to the kind of experiment: Biochemical EGFR kinase assay (Lance Ultra TR-FRET), double mutant del19/C797S. The essentials: as §1
Assay [4] has as its target EGFR L858R/C797S (Homo sapiens, UniProt P00533, C797S/L858R). As to the kind of experiment: Biochemical EGFR kinase assay (Lance Ultra TR-FRET), double mutant L858R/C797S. The essentials: as §1
For assay [5], the target named is EGFR wildtype (WT) (Homo sapiens, UniProt P00533). As to the kind of experiment: Biochemical EGFR kinase assay (Lance Ultra TR-FRET), wildtype. Summed up: as §1
[6] abbreviates: IC50 del19/T790M/C797S (nM) 100 μM ATP, 100 μM ATP.
The mark [7] stands for this setting: Km ATP, read-out: IC50 del19/T790M/C797S (nM) Km ATP.
Where [8] appears, read: IC50 L858R/T790M/C797S (nM) 100 μM ATP, 100 μM ATP.
Where [9] appears, read: Km ATP, read-out: IC50 L858R/T790M/C797S (nM) Km ATP.
The mark [10] stands for this setting: IC50 del19/C797S (nM) 100 μM ATP, 100 μM ATP.
Setting [11] is: Km ATP, read-out: IC50 del19/C797S (nM) Km ATP.
The mark [12] stands for this setting: IC50 L858R/C797S (nM) 100 μM ATP, 100 μM ATP.
Where [13] appears, read: Km ATP, read-out: IC50 L858R/C797S (nM) Km ATP.
Where [14] appears, read: IC50 WT (nM) 100 μM ATP, 100 μM ATP.
Where [15] appears, read: Km ATP, read-out: IC50 WT (nM) Km ATP.

The structures appear in SMILES notation. Where two headings read alike, the source gives them in different places.

Chain of EGFR del19/C797S (P00533 with tags, fused parts or gaps DEL746-750/C797S): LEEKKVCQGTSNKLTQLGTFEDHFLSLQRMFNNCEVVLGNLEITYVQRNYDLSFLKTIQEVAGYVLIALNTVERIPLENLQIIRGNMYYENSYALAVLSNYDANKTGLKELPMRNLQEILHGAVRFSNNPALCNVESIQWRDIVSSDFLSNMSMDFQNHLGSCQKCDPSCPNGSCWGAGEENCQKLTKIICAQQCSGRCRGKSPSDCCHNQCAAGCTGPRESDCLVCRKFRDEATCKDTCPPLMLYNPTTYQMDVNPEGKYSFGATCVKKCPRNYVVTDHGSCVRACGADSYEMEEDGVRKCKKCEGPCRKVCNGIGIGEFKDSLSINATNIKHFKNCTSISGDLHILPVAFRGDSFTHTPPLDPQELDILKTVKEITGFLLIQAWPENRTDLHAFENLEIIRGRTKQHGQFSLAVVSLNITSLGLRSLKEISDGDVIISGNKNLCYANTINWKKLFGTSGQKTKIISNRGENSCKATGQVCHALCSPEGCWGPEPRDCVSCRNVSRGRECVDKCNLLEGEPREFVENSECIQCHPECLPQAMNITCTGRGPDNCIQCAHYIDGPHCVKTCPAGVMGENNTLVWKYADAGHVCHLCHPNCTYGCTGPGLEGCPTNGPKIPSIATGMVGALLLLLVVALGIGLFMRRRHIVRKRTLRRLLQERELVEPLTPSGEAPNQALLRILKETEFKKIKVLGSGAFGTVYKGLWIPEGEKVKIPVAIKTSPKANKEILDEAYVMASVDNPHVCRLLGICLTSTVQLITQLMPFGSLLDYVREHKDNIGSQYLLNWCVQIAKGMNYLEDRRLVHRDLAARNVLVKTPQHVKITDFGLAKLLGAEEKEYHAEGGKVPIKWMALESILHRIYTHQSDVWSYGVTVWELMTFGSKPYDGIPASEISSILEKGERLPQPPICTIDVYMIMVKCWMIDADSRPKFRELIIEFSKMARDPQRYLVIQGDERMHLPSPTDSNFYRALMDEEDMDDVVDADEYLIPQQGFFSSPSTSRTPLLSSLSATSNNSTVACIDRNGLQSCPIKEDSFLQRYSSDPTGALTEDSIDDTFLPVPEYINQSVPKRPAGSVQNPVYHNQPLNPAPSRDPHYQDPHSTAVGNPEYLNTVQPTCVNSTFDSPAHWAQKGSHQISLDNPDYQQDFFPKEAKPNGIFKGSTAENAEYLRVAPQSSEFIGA
Chain of EGFR wildtype (WT) (P00533 25-1210): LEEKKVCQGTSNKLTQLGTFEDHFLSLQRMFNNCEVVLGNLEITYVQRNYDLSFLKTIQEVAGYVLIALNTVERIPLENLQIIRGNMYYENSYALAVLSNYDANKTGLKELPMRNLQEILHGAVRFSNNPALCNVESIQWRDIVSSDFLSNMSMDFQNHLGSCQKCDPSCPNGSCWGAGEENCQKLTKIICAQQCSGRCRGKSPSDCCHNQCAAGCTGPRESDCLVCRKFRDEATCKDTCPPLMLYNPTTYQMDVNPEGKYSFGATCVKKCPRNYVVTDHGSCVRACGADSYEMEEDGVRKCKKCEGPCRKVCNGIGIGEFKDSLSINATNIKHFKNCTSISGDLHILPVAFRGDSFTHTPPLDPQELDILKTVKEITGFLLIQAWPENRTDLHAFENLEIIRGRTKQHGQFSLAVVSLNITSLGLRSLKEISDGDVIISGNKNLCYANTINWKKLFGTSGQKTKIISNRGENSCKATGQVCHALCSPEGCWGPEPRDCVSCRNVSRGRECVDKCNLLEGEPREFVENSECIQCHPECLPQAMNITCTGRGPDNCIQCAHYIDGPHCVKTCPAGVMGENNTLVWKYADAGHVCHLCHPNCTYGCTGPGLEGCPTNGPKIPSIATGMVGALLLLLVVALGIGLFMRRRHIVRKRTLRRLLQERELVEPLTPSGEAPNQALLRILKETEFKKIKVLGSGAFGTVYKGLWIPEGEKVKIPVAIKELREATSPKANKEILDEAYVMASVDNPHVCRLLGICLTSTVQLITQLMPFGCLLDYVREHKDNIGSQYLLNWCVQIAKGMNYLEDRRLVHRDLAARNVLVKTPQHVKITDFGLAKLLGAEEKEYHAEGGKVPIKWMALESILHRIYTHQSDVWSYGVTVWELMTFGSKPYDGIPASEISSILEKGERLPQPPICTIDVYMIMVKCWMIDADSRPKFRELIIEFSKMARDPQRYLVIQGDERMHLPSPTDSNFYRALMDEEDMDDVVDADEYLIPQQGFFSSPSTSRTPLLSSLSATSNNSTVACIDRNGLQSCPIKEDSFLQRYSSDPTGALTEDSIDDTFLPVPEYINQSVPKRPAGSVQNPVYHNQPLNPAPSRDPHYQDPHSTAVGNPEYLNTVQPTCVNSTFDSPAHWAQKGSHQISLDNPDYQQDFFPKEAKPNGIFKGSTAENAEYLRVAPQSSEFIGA
Chain of EGFR del19/T790M/C797S (P00533 with tags, fused parts or gaps DEL746-750/T790M/C797S): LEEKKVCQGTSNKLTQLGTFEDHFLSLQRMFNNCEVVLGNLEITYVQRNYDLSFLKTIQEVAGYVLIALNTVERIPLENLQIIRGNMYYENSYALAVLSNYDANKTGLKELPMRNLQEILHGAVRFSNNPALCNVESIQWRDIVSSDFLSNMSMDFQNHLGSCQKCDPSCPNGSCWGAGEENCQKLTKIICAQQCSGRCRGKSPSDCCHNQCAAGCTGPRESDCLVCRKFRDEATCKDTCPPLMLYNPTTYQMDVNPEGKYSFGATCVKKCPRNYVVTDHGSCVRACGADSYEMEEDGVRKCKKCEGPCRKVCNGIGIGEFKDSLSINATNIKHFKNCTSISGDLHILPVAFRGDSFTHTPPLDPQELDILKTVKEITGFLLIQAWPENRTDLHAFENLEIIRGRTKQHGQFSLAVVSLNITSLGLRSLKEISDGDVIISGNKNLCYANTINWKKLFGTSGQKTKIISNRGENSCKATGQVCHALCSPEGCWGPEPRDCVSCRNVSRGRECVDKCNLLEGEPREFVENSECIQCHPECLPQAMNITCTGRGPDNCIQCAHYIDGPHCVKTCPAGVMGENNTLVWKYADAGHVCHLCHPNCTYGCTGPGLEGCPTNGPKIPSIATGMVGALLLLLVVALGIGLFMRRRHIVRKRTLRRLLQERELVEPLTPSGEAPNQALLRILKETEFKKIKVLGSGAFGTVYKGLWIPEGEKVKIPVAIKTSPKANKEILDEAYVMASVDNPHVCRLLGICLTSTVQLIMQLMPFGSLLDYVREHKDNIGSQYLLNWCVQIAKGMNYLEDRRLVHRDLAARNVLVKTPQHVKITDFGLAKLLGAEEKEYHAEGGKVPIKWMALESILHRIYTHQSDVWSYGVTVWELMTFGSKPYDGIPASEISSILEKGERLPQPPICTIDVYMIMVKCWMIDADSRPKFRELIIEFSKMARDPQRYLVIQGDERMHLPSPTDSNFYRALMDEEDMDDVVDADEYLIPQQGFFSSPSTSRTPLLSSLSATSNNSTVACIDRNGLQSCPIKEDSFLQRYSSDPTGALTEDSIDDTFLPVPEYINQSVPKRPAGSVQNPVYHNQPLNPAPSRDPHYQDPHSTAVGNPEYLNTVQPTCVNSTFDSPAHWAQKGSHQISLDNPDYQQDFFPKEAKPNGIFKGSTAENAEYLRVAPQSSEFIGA
Chain of EGFR L858R/T790M/C797S (P00533 25-1210 T790M/C797S/L858R): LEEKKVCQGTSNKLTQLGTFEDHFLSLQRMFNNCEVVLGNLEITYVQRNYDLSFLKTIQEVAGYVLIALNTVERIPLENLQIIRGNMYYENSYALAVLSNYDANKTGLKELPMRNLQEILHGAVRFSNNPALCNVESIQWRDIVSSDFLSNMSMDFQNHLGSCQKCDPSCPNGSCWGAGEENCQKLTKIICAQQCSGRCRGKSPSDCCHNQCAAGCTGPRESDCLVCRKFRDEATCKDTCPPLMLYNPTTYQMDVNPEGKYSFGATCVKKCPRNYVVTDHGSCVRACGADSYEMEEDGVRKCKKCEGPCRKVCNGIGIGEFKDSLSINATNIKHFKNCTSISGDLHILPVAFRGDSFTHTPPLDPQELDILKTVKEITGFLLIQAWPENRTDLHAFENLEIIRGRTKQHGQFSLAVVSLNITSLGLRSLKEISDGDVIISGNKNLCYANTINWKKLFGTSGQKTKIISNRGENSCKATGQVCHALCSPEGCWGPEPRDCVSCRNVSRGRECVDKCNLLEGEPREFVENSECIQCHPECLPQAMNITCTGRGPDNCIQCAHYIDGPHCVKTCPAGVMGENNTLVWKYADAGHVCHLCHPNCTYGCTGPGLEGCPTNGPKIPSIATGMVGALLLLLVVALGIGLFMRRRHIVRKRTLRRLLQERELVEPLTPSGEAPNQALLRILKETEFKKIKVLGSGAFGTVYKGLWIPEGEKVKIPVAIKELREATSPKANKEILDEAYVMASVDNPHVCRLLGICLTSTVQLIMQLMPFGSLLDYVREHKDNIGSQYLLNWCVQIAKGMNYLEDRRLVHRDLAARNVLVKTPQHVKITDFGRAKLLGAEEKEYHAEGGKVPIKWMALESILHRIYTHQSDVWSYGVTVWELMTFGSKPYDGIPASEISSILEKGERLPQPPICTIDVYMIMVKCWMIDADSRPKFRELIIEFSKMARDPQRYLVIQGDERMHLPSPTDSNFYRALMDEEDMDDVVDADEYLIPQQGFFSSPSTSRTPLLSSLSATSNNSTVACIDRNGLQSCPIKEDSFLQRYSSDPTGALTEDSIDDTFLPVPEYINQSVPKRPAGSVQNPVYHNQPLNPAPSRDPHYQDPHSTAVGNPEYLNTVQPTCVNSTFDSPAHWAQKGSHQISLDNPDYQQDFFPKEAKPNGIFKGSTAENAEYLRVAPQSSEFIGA

On to `CC(C)(O)[C@H]1CC[C@@H](Nc2cc(Nc3ccnc(-c4cnn(S(=O)(=O)C5CC5)c4)n3)ncc2-c2cc3n(n2)CCCC3)CC1` [Example 61, 2-((1s,4s)-4-((2-((2-(1-(Cyclopropylsulfonyl)-1H-pyrazol-4-yl)pyrimidin-4-yl)amino)-5-(4,5,6,7-tetrahydropyrazolo[1,5-a]pyridin-2-yl)pyridin-4-yl)amino)cyclohexyl)propan-2-ol], for which the IC50 in assay [1] (setting [6]) was 4.3 nM; in assay [1] (setting [7]), 2 nM; in assay [2] (setting [8]), 2.4 nM; in assay [2] (setting [9]), 0.8 nM; in assay [3] (setting [10]), 6.2 nM; in assay [3] (setting [11]) it was 1.9 nM. For the same compound, the IC50 in assay [4] (setting [12]) amounted to 8.8 nM; in assay [4] (setting [13]), 2.9 nM; in assay [5] (setting [14]), 2900 nM; in assay [5] (setting [15]) it was 7.9 nM.

Take `O=S(=O)(C1CC1)n1cc(-c2ncc(F)c(Nc3cc(N[C@H]4CC[C@@H](CN5CCC5)CC4)c(-c4ccn(C(F)F)n4)cn3)n2)cn1` [Example 327, N^4-((1s,4s)-4-(Azetidin-1-ylmethyl)cyclohexyl)-N^2-(2-(1-(cyclopropylsulfonyl)-1H-pyrazol-4-yl)-5-fluoropyrimidin-4-yl)-5-(1-(difluoromethyl)-1H-pyrazol-3-yl)pyridine-2,4-diamine]: the IC50 in assay [1] (setting [7]) was 0.4 nM; in assay [2] (setting [9]), 0.2 nM; in assay [3] (setting [11]) it was 1.7 nM; in assay [4] (setting [13]), 2.8 nM; in assay [5] (setting [15]) it was 6.5 nM.

In the case of `CC1(O)CCC(Nc2cc(Nc3ccnc(-c4cnn(C5CCCO5)c4)n3)ncc2-c2ccn(C(F)F)n2)CC1` (stereo not shown) [Example 318, (1s,4s)-4-((5-(1-(Difluoromethyl)-1H-pyrazol-3-yl)-2-((2-(1-(tetrahydrofuran-2-yl)-1H-pyrazol-4-yl)pyrimidin-4-yl)amino)pyridin-4-yl)amino)-1-methylcyclohexan-1-ol], the IC50 is 3 nM in assay [1] (setting [6]); 3.6 nM in assay [1] (setting [7]); 4.8 nM in assay [2] (setting [8]); 0.5 nM in assay [2] (setting [9]); 290 nM in assay [3] (setting [10]); 57.1 nM in assay [3] (setting [11]). The IC50 in assay [4] (setting [12]) was 277 nM; in assay [4] (setting [13]), 42.7 nM; in assay [5] (setting [14]), over 10000 nM; in assay [5] (setting [15]), 255 nM.

Consider `CCOC(=O)c1ccn(-c2cnc(Nc3ccnc(-c4cnn(S(=O)(=O)C5CC5)c4)n3)cc2N[C@H]2CC[C@@](C)(O)CC2)n1` [Example 102, Ethyl 1-(6-((2-(1-(cyclopropylsulfonyl)-1H-pyrazol-4-yl)pyrimidin-4-yl)amino)-4-(((1s,4s)-4-hydroxy-4-methylcyclohexyl)amino)pyridin-3-yl)-1H-pyrazole-3-carboxylate], for which the IC50 was 0.4 nM in assay [1] (setting [6]); 0.5 nM in assay [1] (setting [7]); 0.6 nM in assay [2] (setting [8]); 0.3 nM in assay [2] (setting [9]); 10.6 nM in assay [3] (setting [10]); 6.3 nM in assay [3] (setting [11]). Further, the IC50 in assay [4] (setting [12]) is 123 nM; in assay [4] (setting [13]), 4.4 nM; in assay [5] (setting [14]) it was over 10000 nM; in assay [5] (setting [15]), 183 nM.

As to `CS(=O)(=O)N1CC=C(c2nccc(Nc3cc(N[C@H]4CC[C@@](C)(O)CC4)c(-c4ccn(C(F)F)n4)cn3)n2)CC1` [Example 156, (1s,4s)-4-((5-(1-(Difluoromethyl)-1H-pyrazol-3-yl)-2-((2-(1-(methylsulfonyl)-1,2,3,6-tetrahydropyridin-4-yl)pyrimidin-4-yl)amino)pyridin-4-yl)amino)-1-methylcyclohexan-1-ol], the IC50 in assay [1] (setting [7]) was 35.2 nM; in assay [2] (setting [9]) it was 3.2 nM; in assay [3] (setting [11]) it was over 10000 nM; in assay [4] (setting [13]), 339 nM; in assay [5] (setting [15]), 986 nM.

As to `O=S(=O)(C1CC1)n1cc(-c2nccc(Nc3cc(NN4CCC(O)CC4)c(-c4ccn(C(F)F)n4)cn3)n2)cn1` [Example 153, 1-((2-((2-(1-(Cyclopropylsulfonyl)-1H-pyrazol-4-yl)pyrimidin-4-yl)amino)-5-(1-(difluoromethyl)-1H-pyrazol-3-yl)pyridin-4-yl)amino)piperidin-4-ol], the IC50 was 0.1 nM in assay [1] (setting [7]); 0.1 nM in assay [2] (setting [9]); 1.3 nM in assay [3] (setting [11]); 0.1 nM in assay [4] (setting [13]); 3.9 nM in assay [5] (setting [15]).

As to `CN(C)C(=O)[C@H]1CC[C@@H](Nc2cc(Nc3ccnc(-c4cnn(S(=O)(=O)C5CC5)c4)n3)ncc2-c2ccn(C)n2)CC1` [Example 232, (1s,4s)-4-((2-((2-(1-(Cyclopropylsulfonyl)-1H-pyrazol-4-yl)pyrimidin-4-yl)amino)-5-(1-methyl-1H-pyrazol-3-yl)pyridin-4-yl)amino)-N,N-dimethylcyclohexane-1-carboxamide], the IC50 in assay [1] (setting [6]) amounted to 0.4 nM; in assay [1] (setting [7]), 0.6 nM; in assay [2] (setting [8]) it was 0.4 nM; in assay [2] (setting [9]) it was 0.3 nM; in assay [3] (setting [10]), 1.1 nM; in assay [3] (setting [11]), 0.5 nM. Also, the IC50 came out at 1.6 nM in assay [4] (setting [12]), 0.4 nM in assay [4] (setting [13]) and 247 nM in assay [5] (setting [14]).

`CN(CC(F)F)C[C@H]1CC[C@@H](Nc2cc(Nc3ccnc(-c4cnn(S(=O)(=O)C5CC5)c4)n3)ncc2-c2ccn(CC(F)F)n2)CC1` [Example 245, N^2-(2-(1-(Cyclopropylsulfonyl)-1H-pyrazol-4-yl)pyrimidin-4-yl)-N^4-((1s,4s)-4-(((2,2-difluoroethyl)(methyl)amino)methyl)cyclohexyl)-5-(1-(2,2-difluoroethyl)-1H-pyrazol-3-yl)pyridine-2,4-diamine]: the IC50 is 13.1 nM in assay [1] (setting [6]); 12.8 nM in assay [2] (setting [8]); 27.8 nM in assay [3] (setting [10]); 259 nM in assay [4] (setting [12]); over 10000 nM in assay [5] (setting [14]).

On to `C[C@]1(O)CCCN(c2cc(Nc3ccnc(-c4cnn(S(=O)(=O)C5CC5)c4)n3)ncc2-c2ccn(C(F)F)n2)C1` [Example 107, (S)-1-(2-((2-(1-(Cyclopropylsulfonyl)-1H-pyrazol-4-yl)pyrimidin-4-yl)amino)-5-(1-(difluoromethyl)-1H-pyrazol-3-yl)pyridin-4-yl)-3-methylpiperidin-3-ol], for which the IC50 was 2.7 nM in assay [1] (setting [6]); 4.6 nM in assay [2] (setting [8]); 113 nM in assay [3] (setting [10]); 346 nM in assay [4] (setting [12]); over 10000 nM in assay [5] (setting [14]).

Take `C[C@]1(O)CC[C@@H](Nc2nc(Nc3ccnc(-c4cnn(CC(F)F)c4)c3)ncc2-c2ccn(C(F)F)n2)CC1` [Example 362, (1s,4s)-4-((2-((2-(1-(2,2-Difluoroethyl)-1H-pyrazol-4-yl)pyridin-4-yl)amino)-5-(1-(difluoromethyl)-1H-pyrazol-3-yl)pyrimidin-4-yl)amino)-1-methylcyclohexan-1-ol]: the IC50 in assay [1] (Km ATP, read-out: IC50 del19/T790M/C797S, Km ATP) came out at 0.2 nM; in assay [2] (Km ATP, read-out: IC50 L858R/T790M/C797S, Km ATP), 0.1 nM; in assay [3] (Km ATP, read-out: IC50 del19/C797S, Km ATP), 12.8 nM; in assay [4] (Km ATP, read-out: IC50 L858R/C797S, Km ATP) it was 5 nM; in assay [5] (Km ATP, read-out: IC50 WT, Km ATP), 159 nM.

Consider `CCS(=O)(=O)n1ccc(-c2nccc(Nc3cc(N[C@H]4CC[C@@](C)(O)CC4)c(-c4ccn(C(F)F)n4)cn3)n2)n1` [Example 309, (1s,4s)-4-((5-(1-(Difluoromethyl)-1H-pyrazol-3-yl)-2-((2-(1-(ethylsulfonyl)-1H-pyrazol-3-yl)pyrimidin-4-yl)amino)pyridin-4-yl)amino)-1-methylcyclohexan-1-ol], for which the IC50 came out at 3.8 nM in assay [1] (setting [6]); 4.4 nM in assay [1] (setting [7]); 29.9 nM in assay [2] (setting [8]); 4.9 nM in assay [2] (setting [9]); 343 nM in assay [3] (setting [10]); 460 nM in assay [3] (setting [11]). The IC50 is over 10000 nM in assay [4] (setting [12]), 42.9 nM in assay [4] (setting [13]), over 10000 nM in assay [5] (setting [14]) and 5.5 nM in assay [5] (setting [15]).

These data come from patent US12258327B2, “5-membered heteroaryl-containing aminopyridine compounds as EGFR inhibitors” (YUHAN CORPORATION, priority 2021, dated 2025).
